Results published in patent publication US6737383B1, “Herbicidal oxadiazolidines” (priority 1999, dated 2004).

Tests used:
[1] = tested on: bedstraw; assay: Test B pre/postemergence bedstraw; assay type: in vivo, Galium aparine
Outline: (§1)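 Test chemicals in a non-phytotoxic solvent mixture with surfactant were sprayed preemergence onto planted seeds and postemergence onto plants 2 to 18 cm tall (1- to 4-leaf stage). After twelve to sixteen days in a greenhouse, injury was visually rated against untreated controls from 0 (no effect) to 10 (complete control).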

[2] = tested on: blackgrass; assay: Test B pre/postemergence blackgrass; assay type: in vivo, Alopecurus myosuroides
Outline: as §1

[3] = tested on: surinam grass; assay: Test B pre/postemergence surinam grass; assay type: in vivo, Brachiaria decumbens
Outline: as §1

[4] = tested on: corn; assay: Test B pre/postemergence corn; assay type: in vivo, Zea mays
Outline: as §1

[5] = tested on: crabgrass; assay: Test B pre/postemergence crabgrass; assay type: in vivo, Digitaria sanguinalis
Outline: as §1

[6] = tested on: giant foxtail; assay: Test B pre/postemergence giant foxtail; assay type: in vivo, Setaria faberii
Outline: as §1

[7] = tested on: morningglory; assay: Test B pre/postemergence morningglory; assay type: in vivo, Ipomoea hederacea
Outline: as §1

[8] = tested on: pigweed; assay: Test B pre/postemergence pigweed; assay type: in vivo, Amaranthus retroflexus
Outline: as §1

[9] = tested on: soybean; assay: Test B pre/postemergence soybean; assay type: in vivo, Glycine max
Outline: as §1

[10] = tested on: velvetleaf; assay: Test B pre/postemergence velvetleaf; assay type: in vivo, Abutilon theophrasti
Outline: as §1

[11] = tested on: wheat; assay: Test B pre/postemergence wheat; assay type: in vivo, Triticum aestivum
Outline: as §1

[12] = tested on: wild oat; assay: Test B pre/postemergence wild oat; assay type: in vivo, Avena fatua
Outline: as §1

[13] = tested on: purple nutsedge; assay: Test B pre/postemergence purple nutsedge; assay type: in vivo, Cyperus rotundus
Outline: as §1

[14] = tested on: rice; assay: Test B flood test rice; assay type: in vivo, Oryza sativa
Outline: (§2)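 Each value is a visual injury score relative to controls, with 10 meaning complete control and 0 no effect. Evaluation took place twelve to sixteen days after the 2-leaf-stage plants were treated and kept in the greenhouse.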

[15] = tested on: smallflower flatsedge; assay: Test B flood test smallflower flatsedge; assay type: in vivo, Cyperus difformis
Outline: as §2

[16] = tested on: duck salad; assay: Test B flood test duck salad; assay type: in vivo, Heteranthera limosa
Outline: as §2

[17] = Preemergence, Rate 62 g/ha, scale 0 to 10 (0 no effect, 10 complete control)
[18] = Preemergence, Rate 125 g/ha, 0 is no effect, 10 is complete control
[19] = Preemergence, Rate 250 g/ha, scale 0 to 10, 0 is no effect, 10 is complete control
[20] = Preemergence, Rate 500 g/ha, scale 0 to 10 (0 no effect, 10 complete control)
[21] = Rate 500 g/ha, Postemergence, scale 0 to 10, 0 no effect, 10 complete control
[22] = Postemergence, Rate 125 g/ha, scale of 0 to 10 where 0 is no effect and 10 is complete control
[23] = Rate 62 g/ha, Postemergence, scale of 0 to 10 where 0 is no effect and 10 is complete control
[24] = Rate 250 g/ha, Postemergence, scale 0 to 10, 0 is no effect, 10 is complete control
[25] = Postemergence (flood test species), Rate 125 g/ha, scale of 0 to 10 where 0 is no effect and 10 is complete control
[26] = Rate 62 g/ha, Postemergence section, flood test species, scale of 0 to 10 where 0 is no effect and 10 is complete control
[27] = Rate 250 g/ha, Postemergence (flood test), scale 0 to 10, 0 is no effect, 10 is complete control
[28] = Rate 250 g/ha, headed Pre-emergence (flood test species), scale 0 to 10 (0 no effect, 10 complete control)
[29] = Rate 500 g/ha, headed Pre-emergence (flood test species), scale 0 to 10 (0 no effect, 10 complete control)
[30] = Rate 500 g/ha, listed under Postemergence (flood test species), scale 0 to 10, 0 no effect, 10 complete control
[31] = Rate 1000 g/ha, Pre-emergence (as headed), scale 0 to 10
[32] = Rate 2000 g/ha, Pre-emergence (as headed), scale 0 to 10

CC(C)N(C(=O)n1oc(=O)n(-c2ccnn2C)c1=O)c1ccc(F)cc1 [Compound 124]
2: Morningglory plant response rating [7, 21]
0: Bedstraw plant response rating [1, 17] | Bedstraw plant response rating (0 to 10 scale) [1, 18] | Bedstraw plant response rating [1, 19] | Bedstraw plant response rating [1, 20] | Bedstraw plant response rating [1, 21] | Blackgrass plant response rating [2, 22] | Blackgrass plant response rating [2, 17] | Blackgrass plant response rating (0 to 10 scale) [2, 18] | Blackgrass plant response rating [2, 19] | Blackgrass plant response rating [2, 20] | Blackgrass plant response rating [2, 23] | Plant response rating, Blackgrass [2, 24] | Blackgrass plant response rating [2, 21] | B. signalgrass plant response rating ([3]; Postemergence, Rate 62 g/ha, scale 0 to 10, 0 is no effect, 10 is complete control) | B. signalgrass plant response rating [3, 22] | B. signalgrass plant response rating [3, 17] | B. signalgrass plant response rating (0 to 10 scale) [3, 18] | B. signalgrass plant response rating [3, 19] | B. signalgrass plant response rating [3, 20] | Plant response rating, B. signalgrass [3, 24] | B. signalgrass plant response rating ([3]; Rate 500 g/ha, Postemergence, scale of 0 to 10 where 0 is no effect and 10 is complete control) | Corn plant response rating [4, 22] | Corn plant response rating [4, 17] | Corn plant response rating (0 to 10 scale) [4, 18] | Corn plant response rating [4, 19] | Corn plant response rating [4, 20] | Corn plant response rating [4, 23] | Plant response rating, Corn [4, 24] | Corn plant response rating [4, 21] | Crabgrass plant response rating [5, 22] | Crabgrass plant response rating [5, 17] | Crabgrass plant response rating (0 to 10 scale) [5, 18] | Crabgrass plant response rating [5, 19] | Crabgrass plant response rating [5, 20] | Crabgrass plant response rating [5, 23] | Plant response rating, Crabgrass [5, 24] | Crabgrass plant response rating [5, 21] | Giant foxtail plant response rating [6, 22] | Giant foxtail plant response rating [6, 17] | Giant foxtail plant response rating (0 to 10 scale) [6, 18] | Giant foxtail plant response rating [6, 19] | Giant foxtail plant response rating [6, 20] | Giant foxtail plant response rating [6, 23] | Plant response rating, Giant foxtail [6, 24] | Giant foxtail plant response rating [6, 21] | Morningglory plant response rating [7, 22] | Morningglory plant response rating [7, 17] | Morningglory plant response rating (0 to 10 scale) [7, 18] | Morningglory plant response rating [7, 19] | Morningglory plant response rating [7, 20] | Morningglory plant response rating [7, 23] | Plant response rating, Morningglory [7, 24] | Redroot pigweed plant response rating [8, 22] | Redroot pigweed plant response rating [8, 17] | Redroot pigweed plant response rating (0 to 10 scale) [8, 18] | Redroot pigweed plant response rating [8, 19] | Redroot pigweed plant response rating [8, 20] | Redroot pigweed plant response rating [8, 23] | Plant response rating, Redroot pigweed [8, 24] | Redroot pigweed plant response rating [8, 21] | Soybean plant response rating [9, 17] | Soybean plant response rating (0 to 10 scale) [9, 18] | Soybean plant response rating [9, 19] | Soybean plant response rating [9, 20] | Soybean plant response rating [9, 23] | Velvetleaf plant response rating [10, 22] | Velvetleaf plant response rating [10, 17] | Velvetleaf plant response rating (0 to 10 scale) [10, 18] | Velvetleaf plant response rating [10, 19] | Velvetleaf plant response rating [10, 20] | Velvetleaf plant response rating [10, 23] | Plant response rating, Velvetleaf [10, 24] | Velvetleaf plant response rating [10, 21] | Wheat plant response rating [11, 22] | Wheat plant response rating [11, 17] | Wheat plant response rating (0 to 10 scale) [11, 18] | Wheat plant response rating [11, 19] | Wheat plant response rating [11, 20] | Wheat plant response rating [11, 23] | Plant response rating, Wheat [11, 24] | Wheat plant response rating [11, 21] | Wild oats plant response rating [12, 22] | Wild oats plant response rating [12, 17] | Wild oats plant response rating (0 to 10 scale) [12, 18] | Wild oats plant response rating [12, 19] | Wild oats plant response rating [12, 20] | Wild oats plant response rating [12, 23] | Plant response rating, Wild oats [12, 24] | Wild oats plant response rating [12, 21] | Nutsedge plant response rating [13, 22] | Nutsedge plant response rating [13, 17] | Nutsedge plant response rating (0 to 10 scale) [13, 18] | Nutsedge plant response rating [13, 19] | Nutsedge plant response rating [13, 20] | Nutsedge plant response rating [13, 23] | Plant response rating, Nutsedge [13, 24] | Nutsedge plant response rating [13, 21] | Rice plant response rating [14, 25] | Rice plant response rating [14, 26] | Plant response rating, Rice [14, 27] | Rice plant response rating [14, 28] | Plant response rating, Rice [14, 29] | Rice plant response rating [14, 30] | Rice plant response rating [14, 31] | Rice plant response rating [14, 32] | S. Flatsedge plant response rating [15, 25] | S. Flatsedge plant response rating ([15]; Pre-emergence, Rate 1000 g/ha, scale 0 to 10 (0 no effect, 10 complete control)) | S. Flatsedge plant response rating [15, 26] | Plant response rating, S. Flatsedge [15, 27] | S. Flatsedge plant response rating [15, 28] | Plant response rating, S. Flatsedge [15, 29] | S. Flatsedge plant response rating [15, 30] | S. Flatsedge plant response rating [15, 32] | Ducksalad plant response rating [16, 25] | Ducksalad plant response rating [16, 26] | Plant response rating, Ducksalad [16, 27] | Ducksalad plant response rating [16, 28] | Plant response rating, Ducksalad [16, 29] | Ducksalad plant response rating [16, 30] | Ducksalad plant response rating [16, 31] | Ducksalad plant response rating [16, 32]
4: Plant response rating, Soybean [9, 24]
5: Soybean plant response rating [9, 21]
3: Soybean plant response rating [9, 22]
